{"source": "patent US11865103B2", "about": "“Methods of treating disorders associated with glycosylation defective proteins” (CASE WESTERN RESERVE UNIVERSITY, priority 2016, dated 2024)", "key": {"hCLRN1^N48K-YFP": {"tested_on": "hCLRN1^N48K-YFP", "experiment": "Hair bundle localization of hCLRN1^N48K-YFP (YFP intensity) in neuromast hair cells of live larvae treated with SERCA inhibitors", "type": "in vivo, zebrafish", "parameters": "key: “—” = The YFP intensity in the bundle is similar to untreated control.; “+” = The YFP intensity in the bundle is higher compared to untreated control", "details": "ART 0.25 μM"}, "[1]": {"tested_on": "hCLRN1^N48K-YFP; clrn1^KO/KO larvae", "experiment": "Survival rate of hCLRN1^N48K-YFP; clrn1^KO/KO zebrafish larvae under ART treatment, 6.5 to 27 dpf", "type": "in vivo", "details": "for Survival rate and swimming behavior beyond 25 dpf: untreated 5%", "description": "The startle response and swimming behavior of the clrn1^+/+ larvae, clrn1^KO/KO larvae, hCLRN1-YFP; clrn1^KO/KO larvae and hCLRN1^N48K-YFP; clrn1^KO/KO larvae were recorded at 6.5dpf, 10.5dpf, 16.5dpf and 27dpf as described earlier (Table-1). The extracellular microphonics potentials were recorded at 6dpf to confirm the hair cell function in these humanized zebrafish models for hCLRN1 (hCLRN1-YFP; clrn1^KO/KO larvae larvae) and USH3-CLRN1^N48Kmutant (hCLRN1^N48K-YFP; clrn1^KO/KO larvae) as described earlier (FIG. 5).\nTo verify the degree of overall rescue in swimming behavior (hair cell function) and prolongation of life span by ART treatment in the hCLRN1^N48K-YFP; clrn1^KO/KO zebrafish larvae, survival rate, swimming behavior and startle response were observed longitudinally from 6.5 to 27 dpf (Table 1). For this rescue experiment, we followed two regimens of ART treatment. Regimen I, 35 larvae from hCLRN1^N48K-YFP; clrn1^KO/KO genotype were treated with 0.4 uM ART from 3 to 7 dpf (5 days of treatment during inner ear development and hair cell maturation). Regimen II, 20 larvae from hCLRN1^N48K-YFP; clrn1^KO/KO genotype were treated with 0.4 uM ART from 3 to 12 dpf (10 days of treatment overlapping development and post-development of inner ear anatomy and hair cell maturation). At 6.5 dpf, the swimming behavior and startle response of hCLRN1^N48K-YFP; clrn1^KO/KO larvae from ART treatment regimen I and II, were indistinguishable from that of clrn1^+/+ and hCLRN1-YFP; clrn1^KO/KO larvae. About 75% (Regimen I+II: 41 larvae) of ART treated hCLRN1^N48K-YFP; clrn1^KO/KO larvae had clrn1^+/+ equivalent startle response. In regimen I and II, the survival rate and swimming behavior of hCLRN1^N48K-YFP; clrn1^KO/KO larvae beyond 25 dpf shown significant improvement from 5% in untreated hCLRN1^N48K-YFP; clrn1^KO/KO larvae to 40% (n=14) and 45% (n=[…]), respectively. […] Overall, result confirms that ART is not only able to correct the trafficking defect of hCLRN1^N48K protein, but also able to help in normal hair cell functioning of hair cells from hCLRN1^N48K-YFP; clrn1^KO/KO zebrafish and delay onset progressive loss of hair cell function."}, "[2]": {"details": "Regimen I: 0.4 μM ART from 3 to 7 dpf, 6.5 dpf"}, "[3]": {"details": "Regimen I: 0.4 μM ART from 3 to 7 dpf, 10.5 dpf"}, "[4]": {"details": "Regimen I: 0.4 μM ART from 3 to 7 dpf, 15 dpf"}, "[5]": {"details": "Regimen I: 0.4 μM ART from 3 to 7 dpf, 16.5 dpf"}, "[6]": {"details": "Regimen I: 0.4 μM ART from 3 to 7 dpf, 27 dpf"}, "[7]": {"details": "Regimen II: 0.4 μM ART from 3 to 12 dpf, 6.5 dpf"}, "[8]": {"details": "Regimen II: 0.4 μM ART from 3 to 12 dpf, 10.5 dpf"}, "[9]": {"details": "Regimen II: 0.4 μM ART from 3 to 12 dpf, 15 dpf"}, "[10]": {"details": "Regimen II: 0.4 μM ART from 3 to 12 dpf, 16.5 dpf"}, "[11]": {"details": "Regimen II: 0.4 μM ART from 3 to 12 dpf, 27 dpf"}}}
{"smiles": "C[C@@H]1CC[C@H]2[C@@H](C)C(=O)O[C@@H]3O[C@@]4(C)CC[C@@H]1[C@]32OO4", "note": "[ART, Artemisinin]", "values": [{"measurement": "YFP intensity in the bundle compared to untreated control", "setting": "hCLRN1^N48K-YFP; exposure 2 h", "value": "—"}, {"measurement": "YFP intensity in the bundle compared to untreated control", "setting": "hCLRN1^N48K-YFP; exposure 4 h", "value": "—"}, {"measurement": "YFP intensity in the bundle compared to untreated control", "setting": "hCLRN1^N48K-YFP; exposure 8 h", "value": "—"}, {"measurement": "Survival rate", "setting": "[1]; [2]", "value": "(100%)"}, {"measurement": "Survival rate, number of surviving larvae", "setting": "[1]; [2]", "value": 35}, {"measurement": "Survival rate", "setting": "[1]; [3]", "value": "(85.71%)"}, {"measurement": "Survival rate, number of surviving larvae", "setting": "[1]; [3]", "value": 30}, {"measurement": "Survival rate", "setting": "[1]; [4]", "value": "(68.57%)"}, {"measurement": "Survival rate, number of surviving larvae", "setting": "[1]; [4]", "value": 24}, {"measurement": "Survival rate", "setting": "[1]; [5]", "value": "(54.29%)"}, {"measurement": "Survival rate, number of surviving larvae", "setting": "[1]; [5]", "value": 19}, {"measurement": "Survival rate", "setting": "[1]; [6]", "value": "(40%)"}, {"measurement": "Survival rate, number of surviving larvae", "setting": "[1]; [6]", "value": 14}, {"measurement": "Survival rate and swimming behavior beyond 25 dpf", "setting": "[1]; Regimen I: 0.4 uM ART from 3 to 7 dpf", "value": 40, "unit": "%"}, {"measurement": "Survival rate", "setting": "[1]; [7]", "value": "(100%)"}, {"measurement": "Survival rate, number of surviving larvae", "setting": "[1]; [7]", "value": 20}, {"measurement": "Survival rate", "setting": "[1]; [8]", "value": "(90%)"}, {"measurement": "Survival rate, number of surviving larvae", "setting": "[1]; [8]", "value": 18}, {"measurement": "Survival rate", "setting": "[1]; [9]", "value": "(65%)"}, {"measurement": "Survival rate, number of surviving larvae", "setting": "[1]; [9]", "value": 13}, {"measurement": "Survival rate", "setting": "[1]; [10]", "value": "(65%)"}, {"measurement": "Survival rate, number of surviving larvae", "setting": "[1]; [10]", "value": 13}, {"measurement": "Survival rate", "setting": "[1]; [11]", "value": "(45%)"}, {"measurement": "Survival rate, number of surviving larvae", "setting": "[1]; [11]", "value": 9}, {"measurement": "Survival rate and swimming behavior beyond 25 dpf", "setting": "[1]; Regimen II: 0.4 uM ART from 3 to 12 dpf", "value": 45, "unit": "%"}]}
